Assay results published in US9533977B2, “Oxazolidinone derivative as CETP inhibitor, its preparation method, and pharmaceutical composition comprising the same” (DONG-A ST CO., LTD., priority 2013, dated 2017).

Assays:
[1] = molecular target: T1, CETP (Homo sapiens, UniProt P11597); test: Inhibitory activity against CETP in human plasma (Roar CETP activity kit, fluorescence); assay type: biochemical; settings: plasma from healthy men diluted 1:10 in assay buffer, 37° C., 3 hrs, fluorescence 465/535 nm; read-out: IC50, Inhibition of CETP Activity in Human Plasma
T1 construct: from tissue; host or cells: human plasma from healthy men
T1 sequence (P11597 18-493): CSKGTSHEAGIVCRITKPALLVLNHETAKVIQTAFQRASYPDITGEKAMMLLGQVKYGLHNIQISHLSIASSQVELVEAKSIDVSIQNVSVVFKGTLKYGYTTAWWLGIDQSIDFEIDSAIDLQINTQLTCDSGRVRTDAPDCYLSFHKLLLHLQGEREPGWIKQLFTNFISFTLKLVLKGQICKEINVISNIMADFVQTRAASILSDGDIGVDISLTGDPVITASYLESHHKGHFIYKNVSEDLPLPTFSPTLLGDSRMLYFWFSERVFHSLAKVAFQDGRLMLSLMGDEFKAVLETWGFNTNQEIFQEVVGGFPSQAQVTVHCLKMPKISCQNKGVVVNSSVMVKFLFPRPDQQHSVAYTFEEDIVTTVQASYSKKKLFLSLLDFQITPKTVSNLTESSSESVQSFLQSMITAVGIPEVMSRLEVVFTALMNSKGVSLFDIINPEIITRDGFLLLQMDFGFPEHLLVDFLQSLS
Procedure, shortened: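 Healthy male human plasma, diluted 1:10, incubated 3 hrs at 37° C with donor/acceptor fluorescent substrates and compound (0.01–10000 nM, DMSO). Fluorescence at ex 465/em 535 nm, background-corrected against no-plasma and no-compound wells; IC50 from sigmoidal fit.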

[2] = system: CETP; test: Effect on CETP activity in hamster administered with single dose; assay type: in vivo, Golden Syrian hamsters; settings: hamsters, single oral dose 100 mg/kg, blood 0.5-24 hrs after administration, compared to pre-treatment
Protocol: Each of the compounds of the Examples was orally administered at a dose of 100 mg/kg to three 7-week-old male Golden Syrian hamsters per group. Blood samples were taken from the retro-orbital plexus before administration and 0.5, 1, 2, 4, 6, 8, and 24 hrs after administration, and measured for blood CETP activity using a Roar CETP activity assay kit (Cat#: RB-CETP, Roar Biomedical Inc.).

| Compound | IC50 [1] [nM] | Relative Maximal Inhibition of CETP Activity to Pre-Administration (%) [2] [%] |
| --- | --- | --- |
| CCN(c1ncc(N2CCCC2)cc1CN1C(=O)O[C@H](c2cc(C(F)(F)F)cc(C(F)(F)F)c2)[C@@H]1C)C1CCCCC1 [Example 88, (4S,5R)-5-[3,5-bis(trifluoromethyl)phenyl]-4-methyl-3-({[2-(ethyl)(cyclohexyl)amino]-5-(pyrrolidin-1-yl)pyridin-3-yl}methyl)-oxazolidin-2-one] | 10.7 | 45 |
| CCCN(C[C@H]1CC[C@H](CC(=O)O)CC1)c1ncc(N2CCCC2)nc1CN1C(=O)OC(c2cc(C(F)(F)F)cc(C(F)(F)F)c2)[C@@H]1C (stereo partly shown) [Example 124] | 7.13 | 52 |
| CCN(c1ncc(-c2csnc2C)cc1CN1C(=O)O[C@H](c2cc(C(F)(F)F)cc(C(F)(F)F)c2)[C@@H]1C)C1CCCCC1 [Example 87, (4S,5R)-5-[3,5-bis(trifluoromethyl)phenyl]-4-methyl-3-({[2-(ethyl)(cyclohexyl)amino]-5-(3-methyl-isothioxazol-4-yl)pyridin-3-yl}methyl)-oxazolidin-2-one] | 5.6 | 59 |
| CCN(c1ncc(-c2cccn2C)cc1CN1C(=O)O[C@H](c2cc(C(F)(F)F)cc(C(F)(F)F)c2)[C@@H]1C)C1CCOCC1 [Example 50, (4S,5R)-5-[3,5-bis(trifluoromethyl)phenyl]-4-methyl-3-({[2-(ethyl)(tetrahydro-2H-pyran-4-yl)amino]-5-(1-methyl-1H-pyrrol-2-yl)pyridin-3-yl}methyl)-oxazolidin-2-one] | 11.1 | 57 |
| CCN(c1ncc(-c2cccn2C)cc1CN1C(=O)O[C@H](c2cc(C(F)(F)F)cc(C(F)(F)F)c2)[C@@H]1C)C1CCCCC1 [Example 56, (4S,5R)-5-[3,5-bis(trifluoromethyl)phenyl]-4-methyl-3-({[2-(ethyl)(cyclohexyl-4-yl)amino]-5-(1-methyl-1H-pyrrol-2-yl)pyridin-3-yl}methyl) oxazolidin-2-one] | 10.9 | 49 |
| CCN(c1ncc(N2CCCC2C)cc1CN1C(=O)O[C@H](c2cc(C(F)(F)F)cc(C(F)(F)F)c2)[C@@H]1C)C1CCCCC1 (stereo partly drawn) [Example 89, (4S,5R)-5-[3,5-bis(trifluoromethyl)phenyl]-4-methyl-3-({[2-(ethyl)(cyclohexyl)amino]-5-(2-methyl-pyrrolidin-1-yl)pyridin-3-yl}methyl)-oxazolidin-2-one] | 7 | 53 |
| CCN(CC1CCC(CC(=O)O)CC1)c1ncc(-c2ccsc2)nc1CN1C(=O)OC(c2cc(C(F)(F)F)cc(C(F)(F)F)c2)C1C [Example 105, trans-4-({[3-({(4S,5S)-5-[3,5-bis(trifluoromethyl)phenyl]-4-methyl-2-oxazolidin-3-yl}methyl)-5-(thiophen-3-yl)pyrazin-2-yl]{[N-(ethyl)aminomethyl]cyclohexyl)}acetic acid] | 0.8 | 72 |
| CCN(c1ncc(-c2ccsc2)cc1CN1C(=O)O[C@H](c2cc(C(F)(F)F)cc(C(F)(F)F)c2)[C@@H]1C)C1CCCCC1 [Example 77, (4S,5R)-5-[3,5-bis(trifluoromethyl)phenyl]-4-methyl-3-({[2-(ethyl)(cyclohexyl)amino]-5-(thiophen-3-yl)pyridin-3-yl}methyl)-oxazolidin-2-one] | 2.1 | 50 |
| C[C@H]1[C@@H](c2cc(C(F)(F)F)cc(C(F)(F)F)c2)OC(=O)N1Cc1cc(C(F)(F)F)cnc1N(CC(=O)OC(C)(C)C)C1CCOCC1 [Example 17, t-butyl 2-([3-({(4S,5R)-5-[3,5-bis(trifluoromethyl)phenyl]-4-methyl-2-oxo-oxazolidin-3-yl}methyl)-5-(trifluoromethyl)pyridin-2-yl]-(tetrahydro-2H-pyran-4-yl)amino)-acetate] | 379 | – |
| C[C@H]1C(c2cc(C(F)(F)F)cc(C(F)(F)F)c2)OC(=O)N1Cc1nc(C2CCC2)cnc1N(C)C[C@H]1CC[C@H](CC(=O)O)CC1 (stereo partly shown) [Example 128] | 23.9 | – |
| CCN(c1ncc(-c2cscn2)cc1CN1C(=O)O[C@H](c2cc(C(F)(F)F)cc(C(F)(F)F)c2)[C@@H]1C)C1CCCCC1 [Example 81, (4S,5R)-5-[3,5-bis(trifluoromethyl)phenyl]-4-methyl-3-({[2-(ethyl)(cyclohexyl)amino]-5-(thiazol-4-yl)pyridin-3-yl}methyl)-oxazolidin-2-one] | 26.5 | – |
| CCCN1CCC(N(CC)c2ncc(C(F)(F)F)cc2CN2C(=O)O[C@H](c3cc(C(F)(F)F)cc(C(F)(F)F)c3)[C@@H]2C)CC1 [Example 31] | 108 | – |
| CCN(c1ncc(C(F)(F)F)cc1CN1C(=O)O[C@H](c2cc(C(F)(F)F)cc(C(F)(F)F)c2)[C@@H]1C)C1CCN(C(=O)N(C)C)CC1 [Example 37, methyl 4-{[3-({(4S,5R)-5-[3,5-bis(trifluoromethyl)phenyl]-4-methyl-2-oxo-oxazolidin-3-yl}methyl)-5-(trifluoromethyl)pyridin-2-yl](ethyl)amino}-N,N-dimethylpiperidine-1-carboxamide] | 498 | – |
| CCN(c1ncc(C(F)(F)F)cc1CN1C(=O)O[C@H](c2cc(C(F)(F)F)cc(C(F)(F)F)c2)[C@@H]1C)C1CCN(C(C)=O)CC1 [Example 33, (4S,5R)-5-[3,5-bis(trifluoromethyl)phenyl]-4-methyl-3-({[2-(ethyl)(1-acetylpiperidin-4-yl)amino]-5-(trifluoromethyl)pyridin-3-yl}methyl)-oxazolidin-2-one] | 39.9 | – |
| CCN(CC1CCC(CC(=O)O)CC1)c1ncc(-c2ccnn2C)nc1CN1C(=O)OC(c2cc(C(F)(F)F)cc(C(F)(F)F)c2)C1C [Example 106, trans-4-({[3-({(4S,5S)-5-[3,5-bis(trifluoromethyl)phenyl]-4-methyl-2-oxazolidin-3-yl}methyl)-5-(1-methyl-1H-pyrazol-5-yl)pyrazin-2-yl]{[N-(ethyl)aminomethyl]cyclohexyl)}acetic acid] | 30.3 | – |
| CCN(c1ncc(C(F)(F)F)cc1CN1C(=O)O[C@H](c2cc(C(F)(F)F)cc(C(F)(F)F)c2)[C@@H]1C)C1CC[S+]([O-])CC1 (stereo partly drawn) [Example 26, (4S,5R)-5-[3,5-bis(trifluoromethyl)phenyl]-4-methyl-3-({[2-(ethyl)(1-oxidotetrahydro-2H-thiopyran-4-yl)amino]-5-(trifluoromethyl)pyridin-3-yl}methyl)-oxazolidin-2-one] | 100 | – |
| CCOc1cccc(-c2cnc(N(CC)C3CCOCC3)c(CN3C(=O)O[C@H](c4cc(C(F)(F)F)cc(C(F)(F)F)c4)[C@@H]3C)c2)c1 [Example 48, (4S,5R)-5-[3,5-bis(trifluoromethyl)phenyl]-4-methyl-3-({[2-(ethyl)(tetrahydro-2H-pyran-4-yl)amino]-5-(3-ethoxyphenyl)pyridin-3-yl}methyl)-oxazolidin-2-one] | 133 | – |
| CCN(C[C@H]1CC[C@H](CC(=O)O)CC1)c1ncc(-c2cc(C)cs2)nc1CN1C(=O)OC(c2cc(C(F)(F)F)cc(C(F)(F)F)c2)[C@@H]1C (stereo partly shown) [Example 110] | 56.2 | – |
| (4S,5R)-5-[3,5-bis(trifluoromethyl)phenyl]-4-methyl-3-({2-[(3R,4R)-4-ethoxytetrahydrofuran-3-yl)(methyl)amino]-5-(trifluoromethyl)pyridin-3-yl}methyl)-oxazolidin-2-one [Example 3] | 194 | – |
| C[C@H]1[C@@H](c2cc(C(F)(F)F)cc(C(F)(F)F)c2)OC(=O)N1Cc1cc(C(F)(F)F)cnc1N(C1CCC1)C1CCOCC1 [Example 11, (4S,5R)-5-[3,5-bis(trifluoromethyl)phenyl]-4-methyl-3-({[2-(cyclobutyl)(tetrahydro-2H-pyran-4-yl)amino]-5-(trifluoro)methylpyridin-3-yl}methyl)-oxazolidin-2-one] | 317 | – |
| (4S,5S)-5-[3,5-bis(trifluoromethyl)phenyl]-4-methyl-3-({[2-(methyl)(tetrahydro-2H-pyran-4-yl)amino]-5-(trifluoromethyl)pyridin-3-yl}methyl)-oxazolidin-2-one [Example 6] | 49 | – |
| CCN(c1ncc(-c2ccsc2C#N)cc1CN1C(=O)O[C@@H](c2cc(C(F)(F)F)cc(C(F)(F)F)c2)[C@@H]1C)C1CCCCC1 [Example 82, 3-{5-({(4S,5S)-5-[3,5-bis(trifluoromethyl)phenyl]-4-methyl-2-oxo-oxazolidin-3-yl}methyl)-6-[(cyclohexyl)(ethyl)amino]pyridin-3-yl}-thiophene-2-carbonitrile] | 246 | – |
| CCN(c1ncc(N2CCCCC2)cc1CN1C(=O)O[C@H](c2cc(C(F)(F)F)cc(C(F)(F)F)c2)[C@@H]1C)C1CCOCC1 [Example 44, (4S,5R)-5-[3,5-bis(trifluoromethyl)phenyl]-4-methyl-3-({[2-(ethyl)(tetrahydro-2H-pyran-4-yl)amino]-5-(piperidin-1-yl)pyridin-3-yl}methyl)-oxazolidin-2-one] | 57 | – |
